EC50 and IC50 data for 31 molecules are collected here from US7265152B2 (ViroPharma Incorporated, priority 2002, dated 2007).

The test system of experiment [1] is HCV replicon (BB7 sequence) in Huh-7-Clone A cells. Nature of the experiment: HCV replicon assay: ELISA of NS5A protein in replicon-containing cells (Inhibition of Viral RNA Replication). Format: cell-based. The conditions noted are these: ranges of EC50 in HCV replicon assay, read-out: Replicon. The gist of the method:
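EC50 taken from an 8-point serially diluted dose curve, with NS5A level as read-out: fixed cells probed with primary monoclonal and HRP-conjugated secondary, TMB developed 30 min, OD 650 nm. Compound exposure 72 h in Huh-7-Clone A replicon cells (BB7 sequence).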

Another experiment addresses T1, HCV NS5B (Hepatitis C virus genotype 1b, UniProt Q9WMX2).
T1 construct: fusion protein, of which the carboxyl terminal 21 amino acids were removed to enhance its solubility; His tag (GSHHHHHH); made in house; host or cells: E. coli
Nature of the experiment: Inhibition of viral RNA-dependent RNA polymerase (RdRp), in vitro biochemical assay. Also noted: species or system HCV genotype 1b virus (BB7). The conditions noted are these: HCV NS5B RdRp, BB7 genotype 1b; read-out: HCV pol-BB7 IC50. An outline of the steps: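 IC50 values are the concentrations that halve in vitro RNA synthesis by HCV NS5B polymerase. The enzyme was a C-terminally truncated (Δ21), His-tagged genotype 1b (BB7 consensus) protein purified from E. coli.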

Like-named read-outs stand apart in the source and are kept apart here. Where only a bound is given, the exact number is not on record here.

`CNC(=O)c1c(-c2ccc(F)cc2)oc2cc(NCCN3CCOCC3)c(OC(C)C)cc12` [Example 100, 2-(4-Fluoro-phenyl)-5-isopropoxy-6-(2-morpholin-4-yl-ethylamino)-benzofuran-3-carboxylic acid methylamide]: in experiment [1] (Hepatitis C virus), the EC50 was less than 30000 nM. Further, the half-inhibitory concentration (IC50) on HCV NS5B lay within 500 to 5000 nM.

Consider `CNC(=O)c1c(-c2ccc(F)cc2)oc2cc(N3CCCCC3)c(OC(C)C)cc12` [Example 101, 2-(4-Fluoro-phenyl)-5-isopropoxy-6-piperidin-1-yl-benzofuran-3-carboxylic acid methylamide], for which the EC50 in experiment [1] (Hepatitis C virus) was less than 1000 nM. On HCV NS5B, the half-inhibitory concentration (IC50) was no more than 500 nM.

Regarding `CNC(=O)c1c(-c2ccc(F)cc2)oc2cc(OC)c(OC)cc12` [Example 102, 2-(4-Fluoro-phenyl)-5,6-dimethoxy-benzofuran-3-carboxylic acid methylamide], the EC50 in experiment [1] (Hepatitis C virus) is less than 1000 nM. The IC50 on HCV NS5B was no more than 500 nM.

`CNC(=O)c1c(-c2ccc(F)cc2)oc2cc(N3CCOCC3)c(OC)cc12` [Example 103, 2-(4-Fluoro-phenyl)-5-methoxy-6-morpholin-4-yl-benzofuran-3-carboxylic acid methylamide]: in experiment [1] (Hepatitis C virus), the EC50 was less than 1000 nM. Further, the IC50 on HCV NS5B is no more than 500 nM.

Take `CNC(=O)c1c(-c2ccc(F)c(O)c2)oc2ccc(OC(C)C)cc12` [Example 105, 2-(4-Fluoro-3-hydroxy-phenyl)-5-isopropoxy-benzofuran-3-carboxylic acid methylamide]: in experiment [1] (Hepatitis C virus), the EC50 is less than 30000 nM. The half-maximal inhibitory concentration (IC50) at HCV NS5B lay within 5000 to 30000 nM.

On to `CNC(=O)c1c(-c2ccc(C#N)cc2)oc2ccc(OC(C)C)cc12` [Example 106, 2-(4-Cyano-phenyl)-5-isopropoxy-benzofuran-3-carboxylic acid methylamide], for which the EC50 in experiment [1] (Hepatitis C virus) was less than 30000 nM. For the same molecule, at HCV NS5B, the IC50 is 500 to 5000 nM.

Regarding `CNC(=O)c1c(-c2ccncc2)oc2ccc(OC)cc12` [Example 107, 5-Methoxy-2-pyridin-4-yl-benzofuran-3-carboxylic acid methylamide], in experiment [1] (Hepatitis C virus), the EC50 is less than 100000 nM. The half-inhibitory concentration (IC50) at HCV NS5B was in the range of 500 to 5000 nM.

With `CNC(=O)c1c(-c2ccc(F)cc2)oc2cc(N3CCC(S(C)(=O)=O)C3)c(OC(C)C)cc12` (centres unmarked) [Example 108, 2-(4-Fluoro-phenyl)-5-isopropoxy-6-(3-methanesulfonyl-pyrrolidin-1-yl)-benzofuran-3-carboxylic acid methylamide], the EC50 in experiment [1] (Hepatitis C virus) is less than 1000 nM. Moreover, the half-inhibitory concentration (IC50) on HCV NS5B was no more than 500 nM.

As for `CNC(=O)c1c(-c2ccc(F)cc2)oc2cc(N3CCC3)c(OC(C)C)cc12` [Example 109], in experiment [1], the EC50 is less than 1000 nM. In addition, on HCV NS5B, the concentration for half-maximal inhibition (IC50) was no more than 500 nM.

As to `CNC(=O)c1c(-c2ccc(F)cc2)oc2cc(N3CCC(O)C3)c(OC(C)C)cc12` (centres unmarked) [Example 110], in experiment [1] (Hepatitis C virus), the EC50 was less than 1000 nM. In addition, the IC50 on HCV NS5B is no more than 500 nM.

In the case of `CNC(=O)c1c(-c2ccc(F)cc2)oc2cc(N(C)S(C)(=O)=O)c(OC(C)C)cc12` [Example 111, 2-(4-Fluoro-phenyl)-5-isopropoxy-6-(methanesulfonyl-methyl-amino)-benzofuran-3-carboxylic acid methylamide], in experiment [1] (Hepatitis C virus), the EC50 was less than 1000 nM. Besides, the IC50 at HCV NS5B was no more than 500 nM.

As to `CNC(=O)c1c(-c2ccc(F)cc2)oc2cc(NCc3ccoc3)c(OC(C)C)cc12` [Example 112, 2-(4-Fluoro-phenyl)-6-[(furan-3-ylmethyl)-amino]-5-isopropoxy-benzofuran-3-carboxylic acid methylamide], the EC50 in experiment [1] (Hepatitis C virus) is less than 1000 nM. Besides, the 50% inhibitory concentration (IC50) at HCV NS5B is no more than 500 nM.

With `CNC(=O)c1c(-c2ccc(F)cc2)oc2cc(NCC(O)CO)c(OC(C)C)cc12` (centres unmarked) [Example 113, 6-(2,3-Dihydroxy-propylamino)-2-(4-fluoro-phenyl)-5-isopropoxy-benzofuran-3-carboxylic acid methylamide], the EC50 in experiment [1] (Hepatitis C virus) was less than 10000 nM. Also, the IC50 at HCV NS5B lay within 500 to 5000 nM.

With `CNC(=O)c1c(-c2ccc(F)cc2)oc2cc(NC(C)C)c(OC(C)C)cc12` [Example 114, 2-(4-Fluoro-phenyl)-5-isopropoxy-6-isopropylamino-benzofuran-3-carboxylic acid methylamide], in experiment [1] (Hepatitis C virus), the EC50 was less than 1000 nM. Further, the IC50 at HCV NS5B is no more than 500 nM.

For the molecule `CNC(=O)c1c(-c2ccc(F)cc2)oc2cc(NCC3CC3)c(OC(C)C)cc12` [Example 115, 6-(Cyclopropylmethyl-amino)-2-(4-fluoro-phenyl)-5-isopropoxy-benzofuran-3-carboxylic acid methylamide], in experiment [1] (Hepatitis C virus), the EC50 is less than 1000 nM. Further, the IC50 at HCV NS5B was no more than 500 nM.

With `CNC(=O)c1c(-c2ccc(F)cc2)oc2cc(N3CCCC3)c(OC)cc12` [Example 116, 2-(4-Fluoro-phenyl)-5-methoxy-6-pyrrolidin-1-yl-benzofuran-3-carboxylic acid methylamide], the EC50 in experiment [1] (Hepatitis C virus) was less than 1000 nM. Moreover, the half-inhibitory concentration (IC50) at HCV NS5B is no more than 500 nM.

Take `CNC(=O)c1c(-c2ccc(F)cc2)oc2cc(N3CCOCC3)c(OCc3ccccc3)cc12` [Example 117, 5-Benzyloxy-2-(4-fluoro-phenyl)-6-morpholin-4-yl-benzofuran-3-carboxylic acid methylamide]: in experiment [1] (Hepatitis C virus), the EC50 is less than 1000 nM. Moreover, the half-maximal inhibitory concentration (IC50) at HCV NS5B was no more than 500 nM.

Turning to `CNC(=O)c1c(-c2ccccc2)oc2ccc(CO)cc12` [Example 118, 5-Hydroxymethyl-2-phenyl-benzofuran-3-carboxylic acid methylamide], the EC50 in experiment [1] (Hepatitis C virus) is greater than 100000 nM. Moreover, the concentration for half-maximal inhibition (IC50) on HCV NS5B is 5000 to 30000 nM.

Take `CNC(=O)c1c(-c2ccc(F)cc2)oc2cc(N(C)CCOC)c(OC(C)C)cc12` [Example 119, 2-(4-Fluoro-phenyl)-5-isopropoxy-6-[(2-methoxy-ethyl)-methyl-amino]-benzofuran-3-carboxylic acid methylamide]: the EC50 in experiment [1] (Hepatitis C virus) was less than 1000 nM. For the same molecule, the IC50 on HCV NS5B was no more than 500 nM.

In the case of `CNC(=O)c1c(-c2ccc(F)cc2)oc2cc(N)c(OCc3ccccc3)cc12` [Example 120, 6-Amino-5-benzyloxy-2-(4-fluoro-phenyl)-benzofuran-3-carboxylic acid methylamide], the EC50 in experiment [1] (Hepatitis C virus) was less than 10000 nM. At HCV NS5B, the IC50 was no more than 500 nM.

As to `CNC(=O)c1c(-c2occc2C)oc2ccc(OC(C)C)cc12` [Example 121, 5-Isopropoxy-2-(3-methyl-furan-2-yl)-benzofuran-3-carboxylic acid methylamide], the EC50 in experiment [1] (Hepatitis C virus) was less than 30000 nM. Also, the IC50 on HCV NS5B was 500 to 5000 nM.

In the case of `CNC(=O)c1c(-c2ccc(F)cc2)oc2cc(NS(C)(=O)=O)c(OC)cc12` [Example 122, 2-(4-Fluoro-phenyl)-6-methanesulfonylamino-5-methoxy-benzofuran-3-carboxylic acid methylamide], the EC50 in experiment [1] (Hepatitis C virus) was less than 1000 nM. On HCV NS5B, the half-maximal inhibitory concentration (IC50) was no more than 500 nM.

As for `CNC(=O)c1c(-c2ccc(F)cc2)oc2cc(NCC3CCCO3)c(OC(C)C)cc12` (centres unmarked) [Example 123, 2-(4-Fluoro-phenyl)-5-isopropoxy-6-[(tetrahydro-furan-2-ylmethyl)-amino]-benzofuran-3-carboxylic acid methylamide], in experiment [1] (Hepatitis C virus), the EC50 was less than 10000 nM. Also, the IC50 on HCV NS5B is no more than 500 nM.

With `CNC(=O)c1c(-c2ccc(F)cc2)oc2cc(N3CCOCC3)c(OCC3CC3)cc12` [Example 125, 5-Cyclopropylmethoxy-2-(4-fluoro-phenyl)-6-morpholin-4-yl-benzofuran-3-carboxylic acid methylamide], the EC50 in experiment [1] (Hepatitis C virus) is less than 1000 nM. Also, the IC50 at HCV NS5B was no more than 500 nM.

On to `CNC(=O)c1c(-c2ccc(F)cc2)oc2cc(Cl)c(OC)cc12` [Example 126, 6-Chloro-2-(4-fluoro-phenyl)-5-methoxy-benzofuran-3-carboxylic acid methylamide], for which, in experiment [1] (Hepatitis C virus), the EC50 is less than 1000 nM. Further, the IC50 at HCV NS5B was no more than 500 nM.

As for `CCNC(=O)c1c(-c2ccccc2)oc2ccc(OC)cc12` [Example 130, 5-Methoxy-2-phenyl-benzofuran-3-carboxylic acid ethylamide], in experiment [1] (Hepatitis C virus), the EC50 is less than 10000 nM. At HCV NS5B, the IC50 fell in the range of 5000 to 30000 nM.

Consider `CNC(=O)c1c(-c2ccc(F)cc2)oc2cc(Nc3ccncc3)c(OC(C)C)cc12` [Example 131, 2-(4-Fluoro-phenyl)-5-isopropoxy-6-(pyridin-4-ylamino)-benzofuran-3-carboxylic acid methylamide], for which the EC50 in experiment [1] (Hepatitis C virus) is less than 30000 nM. Besides, the IC50 on HCV NS5B fell in the range of 500 to 5000 nM.

With `CNC(=O)c1c(-c2ccc(F)cc2)oc2cc(N3CCN(C)CC3)c(OC(C)C)cc12` [Example 132, 2-(4-Fluoro-phenyl)-5-isopropoxy-6-(4-methyl-piperazin-1-yl)-benzofuran-3-carboxylic acid methylamide], the EC50 in experiment [1] (Hepatitis C virus) was greater than 30000 nM. The IC50 on HCV NS5B fell in the range of 5000 to 30000 nM.

Consider `CNC(=O)c1c(-c2ccc(F)cc2)oc2cc(NS(=O)(=O)CCCCl)c(OC(C)C)cc12` [Example 133, 6-(3-Chloro-propane-1-sulfonylamino)-2-(4-fluoro-phenyl)-5-isopropoxy-benzofuran-3-carboxylic acid methylamide], for which, in experiment [1] (Hepatitis C virus), the EC50 was less than 1000 nM. For the same molecule, the IC50 on HCV NS5B lay within 500 to 5000 nM.

`CNC(=O)c1c(-c2ccc(F)cc2)oc2cc(N3CCCS3(=O)=O)c(OC(C)C)cc12` [Example 134, 6-(1,1-Dioxido-isothiazolidin-2-yl)-2-(4-fluoro-phenyl)-5-isopropoxy-benzofuran-3-carboxylic acid methylamide]: the EC50 in experiment [1] (Hepatitis C virus) was less than 10000 nM. The half-maximal inhibitory concentration (IC50) at HCV NS5B is 500 to 5000 nM.

For the molecule `CNC(=O)c1c(-c2ccc(F)cc2)oc2cc(N(C(C)C)S(C)(=O)=O)c(OC(C)C)cc12` [Example 136, 2-(4-Fluoro-phenyl)-5-isopropoxy-6-(isopropyl-methanesulfonyl-amino)-benzofuran-3-carboxylic acid methylamide], the EC50 in experiment [1] (Hepatitis C virus) was less than 1000 nM. Further, the half-maximal inhibitory concentration (IC50) on HCV NS5B is no more than 500 nM.
